Experimental data taken from patent publication US20250221410A1, “SUBSTITUTED 2-C-AZINES AND SALTS THEREOF, AND USE THEREOF AS HERBICIDAL ACTIVE SUBSTANCES” (BAYER AKTIENGESELLSCHAFT, priority 2022, published 2025).

Experiments:
[1] = system: DIGSA: Digitaria sanguinalis; test: Post-emergence herbicidal efficacy at 80 g/ha, DIGSA; format: in vivo; conditions: visual rating about 3 weeks after treatment vs untreated controls
Method: (§1) Seeds of monocotyledonous and dicotyledonous weeds and crop plants were placed in sandy loam in plastic or organic planting pots, covered with soil and cultivated in a greenhouse under controlled growth conditions. 2 to 3 weeks after sowing, the test plants were treated at the one-leaf stage. The compounds of the invention, formulated in the form of wettable powders (WP) or as emulsion concentrates (EC), were then sprayed onto the green parts of the plants as aqueous suspension or emulsion with addition of 0.5% additive at a water application rate of 600 l/ha (converted). After the test plants had been kept in the greenhouse under optimum growth conditions for about 3 weeks, the activity of the preparations was rated visually in comparison to untreated controls. For example, 100% activity=the plants have died, 0% activity=like control plants. Tables B1 to B10 below show the effects of selected compounds of the general formula (I) according to Table 1 on various harmful plants and an application rate corresponding to 80 g/ha, which were obtained by the experimental procedure mentioned above.

VERPE: Veronica persica [2] = test: Pre-emergence herbicide efficacy at 80 g/ha, VERPE; format: in vivo; conditions: scored visually after about 3 weeks
In short: (§2)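 Seeds sown in pots and covered with soil received WP or EC formulations sprayed onto the soil surface at 80 g/ha, 600 l/ha water, with 0.5% additive. After about 3 weeks in greenhouse, efficacy was visually scored as percent versus untreated controls (100% = plants dead, 0% = like control).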

POLCO [3] = test: Post-emergence herbicidal efficacy at 80 g/ha, POLCO; format: in vivo, Polygonum convolvulus; conditions: visual rating about 3 weeks after treatment vs untreated controls
Method: as §1

[4] = system: ALOMY: Alopecurus myosuroides; test: Post-emergence herbicidal efficacy at 80 g/ha, ALOMY; format: in vivo; conditions: visual rating about 3 weeks after treatment vs untreated controls
Method: as §1

[5] = system: AMARE: Amaranthus retroflexus; test: Post-emergence herbicidal efficacy at 80 g/ha, AMARE; format: in vivo; conditions: visual rating about 3 weeks after treatment vs untreated controls
In short: (§3)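 Activity is a visual score relative to untreated plants, taken about 3 weeks after treatment, where 100% means plant death and 0% means no difference from control. Weeds in sandy loam were sprayed at the one-leaf stage with an aqueous WP or EC preparation carrying 0.5% additive at 600 l/ha.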

POLCO [6] = test: Pre-emergence herbicide efficacy at 80 g/ha, POLCO; format: in vivo; conditions: Polygonum convolvulus, scored visually after about 3 weeks
In short: as §2

SETVI: Setaria viridis [7] = test: Pre-emergence herbicide efficacy at 80 g/ha, SETVI; format: in vivo; conditions: scored visually after about 3 weeks
Source text: (§4) Seeds of monocotyledonous and dicotyledonous weed plants and crop plants were placed in plastic or organic planting pots and covered with soil. The compounds of the invention, formulated in the form of wettable powders (WP) or as emulsion concentrates (EC), were then applied to the surface of the covering soil as aqueous suspension or emulsion with addition of 0.5% additive at a water application rate equivalent to 600 l/ha. After the treatment, the pots were placed in a greenhouse and kept under good growth conditions for the test plants. After about 3 weeks, the efficacy of the preparations was scored visually in comparison with untreated controls as percentages. For example, 100% activity=the plants have died, 0% activity=like control plants. Tables D1 to D12 below show the effects of selected compounds of the general formula (I) according to Table 1 on various harmful plants and an application rate corresponding to 80 g/ha, which were obtained by the experimental procedure mentioned above.

[8] = system: ECHCG: Echinochloa crus-galli; test: Post-emergence herbicidal efficacy at 80 g/ha, ECHCG; format: in vivo; conditions: visual rating about 3 weeks after treatment vs untreated controls
Method: as §1

[9] = system: AMARE: Amaranthus retroflexus; test: Pre-emergence herbicide efficacy at 80 g/ha, AMARE; format: in vivo; conditions: scored visually after about 3 weeks
In short: as §2

[10] = system: DIGSA: Digitaria sanguinalis; test: Pre-emergence herbicide efficacy at 80 g/ha, DIGSA; format: in vivo; conditions: scored visually after about 3 weeks
In short: as §2

VERPE: Veronica persica [11] = test: Post-emergence herbicidal efficacy at 80 g/ha, VERPE; format: in vivo; conditions: visual rating about 3 weeks after treatment vs untreated controls
In short: as §3

[12] = system: ECHCG: Echinochloa crus-galli; test: Pre-emergence herbicide efficacy at 80 g/ha, ECHCG; format: in vivo; conditions: scored visually after about 3 weeks
Source text: as §4

[13] = system: MATIN: Matricaria inodora; test: Pre-emergence herbicide efficacy at 80 g/ha, MATIN; format: in vivo; conditions: scored visually after about 3 weeks
Source text: as §4

[14] = system: ALOMY: Alopecurus myosuroides; test: Pre-emergence herbicide efficacy at 80 g/ha, ALOMY; format: in vivo; conditions: scored visually after about 3 weeks
Source text: as §4

[15] = system: ABUTH: Abutilon theophrasti; test: Post-emergence herbicidal efficacy at 80 g/ha, ABUTH; format: in vivo; conditions: rated visually after about 3 weeks vs untreated controls, 100% = plants have died, 0% = like control plants
Method: as §1

SETVI: Setaria viridis [16] = test: Post-emergence herbicidal efficacy at 80 g/ha, SETVI; format: in vivo; conditions: visual rating about 3 weeks after treatment vs untreated controls
Method: as §1

[17] = system: ABUTH: Abutilon theophrasti; test: Pre-emergence herbicide efficacy at 80 g/ha, ABUTH; format: in vivo; conditions: scored visually after about 3 weeks
In short: as §2

LOLRI: Lolium rigidum = test: Pre-emergence herbicide efficacy at 80 g/ha, LOLRI; format: in vivo; conditions: scored visually after about 3 weeks
Source text: as §4

FC(F)c1cc(-c2c(Cl)cccc2Cc2ncc(Cl)cn2)on1 [Example 1-140]
Post-emergence efficacy against DIGSA [1]: 90% | Pre-emergence efficacy against VERPE in % (VERPE: Veronica persica [2]): 100% | Post-emergence efficacy against POLCO (POLCO [3]): 100% | Post-emergence efficacy against ALOMY [4]: 80% | Post-emergence efficacy against AMARE [5]: 100% | Pre-emergence efficacy against POLCO in % (POLCO [6]): 90% | Pre-emergence efficacy against SETVI in % (SETVI: Setaria viridis [7]): 100% | Post-emergence efficacy against ECHCG [8]: 90% | Pre-emergence efficacy against AMARE in % [9]: 100% | Pre-emergence efficacy against DIGSA in % [10]: 100% | Post-emergence efficacy against VERPE (VERPE: Veronica persica [11]): 100% | Pre-emergence efficacy against ECHCG in % [12]: 100% | Pre-emergence efficacy against MATIN in % [13]: 80% | Pre-emergence efficacy against ALOMY in % [14]: 90% | Post-emergence efficacy at 80 g/ha against ABUTH in % [15]: 100% | Post-emergence efficacy against SETVI (SETVI: Setaria viridis [16]): 80% | Pre-emergence efficacy against ABUTH in % [17]: 100% | Pre-emergence efficacy against LOLRI in % (LOLRI: Lolium rigidum): 90%
